In patent US20230085307A1, “PYRIDAZINONE COMPOUND AND HERBICIDE” (NISSAN CHEMICAL CORPORATION, priority 2019, published 2023):

How the values were obtained:
velvetleaf [1] = experiment: Test Example 5: herbicidal effect by foliage application, plastic box (Table 20, symbol M); type: in vivo, velvetleaf (Abutilon theophrasti); conditions: foliage application
In short: (§1)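 Foliar spray test: emulsion formulation diluted in water to a set application rate, sprayed onto 14-day-old plants raised in diluvial soil at 25° C to 30° C under glass. Both herbicidal effect and crop effect rated visually three weeks later.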

barnyard grass [2] = experiment: Test Example 4: herbicidal effect by soil treatment (Table 19, symbol H); type: in vivo, barnyard grass (Echinochloa crus-galli)
In short: (§2)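 Herbicidal effect was rated 3 weeks after treatment, using the scoring criteria of an earlier test. The compound, formulated as an emulsion and diluted in water to a set herbicide amount, had been sprayed uniformly on soil over freshly sown seeds. Growth took place in a greenhouse at 25° C. to 30° C.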

late watergrass = experiment: Test Example 2: herbicidal activity, application during weed generation under submerged conditions (Table 17, symbol A); type: in vivo, late watergrass (Echinochloa oryzicola); conditions: application during weed generation, submerged conditions
In short: (§3)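 Herbicide emulsion, diluted with water to the chosen amount, is applied onto 4 cm floodwater over alluvial soil where the weeds were co-sown and raised at 25–30° C. Application timing: 1–2 leaves. Assessment: three weeks afterwards.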

barnyard grass [3] = experiment: Test Example 3: herbicidal effect by foliage application, Wagner pot (Table 18, symbol H); type: in vivo, barnyard grass (Echinochloa crus-galli); conditions: for herbicidal effect on H (barnyard grass), rating 0-5: 320 g/ha
In short: (§4)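 Plants were sown in alluvial soil held under 0.1–0.5 cm standing water and grown 14 days in a greenhouse at 25–30 °C. An emulsifiable formulation, water-diluted to the set dose, was then sprayed onto the foliage, and effects were scored three weeks later using previously defined criteria.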

windgrass = experiment: Test Example 5: herbicidal effect by foliage application, plastic box (Table 20, symbol L); type: in vivo, windgrass (Apera spica-venti); conditions: foliage application
In short: as §1

wild oat [4] = experiment: Test Example 4: herbicidal effect by soil treatment (Table 19, symbol I); type: in vivo, wild oat (Avena fatua)
In short: as §2

green foxtail [5] = experiment: Test Example 5: herbicidal effect by foliage application, plastic box (Table 20, symbol G); type: in vivo, green foxtail (Setaria viridis); conditions: foliage application
In short: as §1

redroot pigweed [6] = experiment: Test Example 5: herbicidal effect by foliage application, plastic box (Table 20, symbol N); type: in vivo, redroot pigweed (Amaranthus retroflexus); conditions: foliage application, 320 g/ha, three weeks after application
In short: as §1

velvetleaf [7] = experiment: Test Example 4: herbicidal effect by soil treatment (Table 19, symbol M); type: in vivo, velvetleaf (Abutilon theophrasti)
In short: as §2

Italian ryegrass [8] = experiment: Test Example 4: herbicidal effect by soil treatment (Table 19, symbol K); type: in vivo, Italian ryegrass (Lolium multiflorum)
In short: as §2

lambsquarters = experiment: Test Example 4: herbicidal effect by soil treatment (Table 19, symbol O); type: in vivo, lambsquarters (Chenopodium album)
In short: as §2

chickweed [9] = experiment: Test Example 5: herbicidal effect by foliage application, plastic box (Table 20, symbol P); type: in vivo, common chickweed (Stellaria media); conditions: foliage application, 320 g/ha, three weeks after application
In short: as §1

redroot pigweed [10] = experiment: Test Example 4: herbicidal effect by soil treatment (Table 19, symbol N); type: in vivo, redroot pigweed (Amaranthus retroflexus)
In short: as §2

blackgrass = experiment: Test Example 5: herbicidal effect by foliage application, plastic box (Table 20, symbol J); type: in vivo, blackgrass (Alopecurus myosuroides); conditions: foliage application
In short: as §1

Japanese bulrush = experiment: Test Example 2: herbicidal activity, application during weed generation under submerged conditions (Table 17, symbol B); type: in vivo, Japanese bulrush (Schoenoplectus juncoides); conditions: application during weed generation, submerged conditions
In short: as §3

rice flat sedge = experiment: Test Example 3: herbicidal effect by foliage application, Wagner pot (Table 18, symbol E); type: in vivo, rice flat sedge (Cyperus iria); conditions: for herbicidal effect on E (rice flat sedge), rating 0-5: 320 g/ha
In short: as §4

persian speedwell = experiment: Test Example 5: herbicidal effect by foliage application, plastic box (Table 20, symbol R); type: in vivo, Persian speedwell (Veronica persica); conditions: foliage application
In short: as §1

southern crabgrass = experiment: Test Example 4: herbicidal effect by soil treatment (Table 19, symbol F); type: in vivo, southern crabgrass (Digitaria ciliaris)
In short: as §2

wild oat [11] = experiment: Test Example 5: herbicidal effect by foliage application, plastic box (Table 20, symbol I); type: in vivo, wild oat (Avena fatua); conditions: foliage application
In short: as §1

Italian ryegrass [12] = experiment: Test Example 5: herbicidal effect by foliage application, plastic box (Table 20, symbol K); type: in vivo, Italian ryegrass (Lolium multiflorum); conditions: foliage application
In short: as §1

green foxtail [13] = experiment: Test Example 4: herbicidal effect by soil treatment (Table 19, symbol G); type: in vivo, green foxtail (Setaria viridis)
In short: as §2

chickweed [14] = experiment: Test Example 4: herbicidal effect by soil treatment (Table 19, symbol P); type: in vivo, common chickweed (Stellaria media)
In short: as §2

[15] = 320 g/ha, three weeks after application
[16] = amount of applied herbicide 320 g/ha
[17] = 320 g/ha, 3 weeks after application
[18] = 246 g/ha, three weeks after application
[19] = amount of applied herbicide 246 g/ha

CCCCOc1ccc(-c2sc3ccccc3c2-c2c(OC(=O)CCC)c(C)nn(C)c2=O)cc1 [1-025]
herbicidal effect grade, M: velvetleaf (velvetleaf [1]; [15]): 5 (Herbicidal rate of 90% or more (almost completely withered)) | herbicidal effect rating, H: barnyard grass (barnyard grass [2]; [16]): 0 (Herbicidal rate of 5% or less (almost no effect)) | herbicidal effect rating, A: late watergrass (late watergrass; AAH 320 g/ha): 0 (Herbicidal rate of 5% or less (almost no effect)) | herbicidal effect on H (barnyard grass), rating 0-5 (barnyard grass [3]): 5 (Herbicidal rate of 90% or more (almost completely withered)) | herbicidal effect grade, L: windgrass (windgrass; [15]): 0 (Herbicidal rate of 5% or less (almost no effect)) | herbicidal effect rating, I: wild oat (wild oat [4]; [16]): 0 (Herbicidal rate of 5% or less (almost no effect)) | herbicidal effect grade, G: green foxtail (green foxtail [5]; [15]): 3 (Herbicidal rate of 40% or more and less than 70%) | herbicidal effect grade, N: redroot pigweed (redroot pigweed [6]): 5 (Herbicidal rate of 90% or more (almost completely withered)) | herbicidal effect rating, M: velvetleaf (velvetleaf [7]; [16]): 0 (Herbicidal rate of 5% or less (almost no effect)) | herbicidal effect rating, K: Italian ryegrass (Italian ryegrass [8]; [16]): 0 (Herbicidal rate of 5% or less (almost no effect)) | herbicidal effect rating, O: lambsquarters (lambsquarters; [16]): 2 (Herbicidal rate of 20% or more and less than 40%) | herbicidal effect grade, P: chickweed (chickweed [9]): 5 (Herbicidal rate of 90% or more (almost completely withered)) | herbicidal effect rating, N: redroot pigweed (redroot pigweed [10]; [16]): 5 (Herbicidal rate of 90% or more (almost completely withered)) | herbicidal effect grade, J: blackgrass (blackgrass; [15]): 0 (Herbicidal rate of 5% or less (almost no effect)) | herbicidal effect rating, B: Japanese bulrush (Japanese bulrush; AAH 320 g/ha): 3 (Herbicidal rate of 40% or more and less than 70%) | herbicidal effect on E (rice flat sedge), rating 0-5 (rice flat sedge): 5 (Herbicidal rate of 90% or more (almost completely withered)) | herbicidal effect grade, R: persian speedwell (persian speedwell; [15]): 5 (Herbicidal rate of 90% or more (almost completely withered)) | herbicidal effect rating, F: southern crabgrass (southern crabgrass; [16]): 0 (Herbicidal rate of 5% or less (almost no effect)) | herbicidal effect grade, I: wild oat (wild oat [11]; [15]): 0 (Herbicidal rate of 5% or less (almost no effect)) | herbicidal effect grade, K: Italian ryegrass (Italian ryegrass [12]; [15]): 1 (Herbicidal rate of 5% or more and less than 20%)

CCCC(=O)Oc1c(C)nn(C)c(=O)c1-c1c(-c2ccccc2OC(F)(F)F)sc2ccc(F)cc12 [2-044]
effect on velvetleaf (M) (velvetleaf [1]; [17]): 5 (Herbicidal rate of 90% or more (almost completely withered)) | herbicidal effect rating, G: green foxtail (green foxtail [13]; 320 g/ha): 4 (Herbicidal rate of 70% or more and less than 90%) | herbicidal effect rating, H: barnyard grass (barnyard grass [2]; 320 g/ha): 3 (Herbicidal rate of 40% or more and less than 70%) | herbicidal effect rating, A: late watergrass (late watergrass; AAH 320 g/ha): 2 (Herbicidal rate of 20% or more and less than 40%) | herbicidal effect on H (barnyard grass), rating 0-5 (barnyard grass [3]): 3 (Herbicidal rate of 40% or more and less than 70%) | effect on windgrass (L) (windgrass; [17]): 4 (Herbicidal rate of 70% or more and less than 90%) | herbicidal effect rating, I: wild oat (wild oat [4]; 320 g/ha): 2 (Herbicidal rate of 20% or more and less than 40%) | effect on green foxtail (G) (green foxtail [5]; [17]): 5 (Herbicidal rate of 90% or more (almost completely withered)) | herbicidal effect rating, M: velvetleaf (velvetleaf [7]; 320 g/ha): 3 (Herbicidal rate of 40% or more and less than 70%) | herbicidal effect rating, K: Italian ryegrass (Italian ryegrass [8]; 320 g/ha): 0 (Herbicidal rate of 5% or less (almost no effect)) | herbicidal effect rating, O: lambsquarters (lambsquarters; 320 g/ha): 5 (Herbicidal rate of 90% or more (almost completely withered)) | herbicidal effect rating, N: redroot pigweed (redroot pigweed [10]; 320 g/ha): 5 (Herbicidal rate of 90% or more (almost completely withered)) | effect on blackgrass (J) (blackgrass; [17]): 0 (Herbicidal rate of 5% or less (almost no effect)) | herbicidal effect rating, B: Japanese bulrush (Japanese bulrush; AAH 320 g/ha): 3 (Herbicidal rate of 40% or more and less than 70%) | herbicidal effect rating, P: chickweed (chickweed [14]; 320 g/ha): 3 (Herbicidal rate of 40% or more and less than 70%) | herbicidal effect on E (rice flat sedge), rating 0-5 (rice flat sedge): 5 (Herbicidal rate of 90% or more (almost completely withered)) | effect on persian speedwell (R) (persian speedwell; [17]): 5 (Herbicidal rate of 90% or more (almost completely withered)) | herbicidal effect rating, F: southern crabgrass (southern crabgrass; 320 g/ha): 3 (Herbicidal rate of 40% or more and less than 70%) | effect on wild oat (I) (wild oat [11]; [17]): 3 (Herbicidal rate of 40% or more and less than 70%) | effect on Italian ryegrass (K) (Italian ryegrass [12]; [17]): 0 (Herbicidal rate of 5% or less (almost no effect))

CCCC(=O)Oc1c(C)nn(C)c(=O)c1-c1c(-c2ccc(F)cc2OCC)oc2ccc(C)cc12 [9-010]
herbicidal effect on velvetleaf (M) (velvetleaf [1]; [18]): 4 (Herbicidal rate of 70% or more and less than 90%) | G: green foxtail, herbicidal effect grade (green foxtail [13]; [19]): 3 (Herbicidal rate of 40% or more and less than 70%) | H: barnyard grass, herbicidal effect grade (barnyard grass [2]; [19]): 0 (Herbicidal rate of 5% or less (almost no effect)) | herbicidal effect rating, A: late watergrass (late watergrass; AAH 246 g/ha): 0 (Herbicidal rate of 5% or less (almost no effect)) | Herbicidal effect on H (barnyard grass), foliage application (barnyard grass [3]; [19]): 4 (Herbicidal rate of 70% or more and less than 90%) | herbicidal effect on windgrass (L) (windgrass; [18]): 0 (Herbicidal rate of 5% or less (almost no effect)) | I: wild oat, herbicidal effect grade (wild oat [4]; [19]): 0 (Herbicidal rate of 5% or less (almost no effect)) | herbicidal effect on green foxtail (G) (green foxtail [5]; [18]): 2 (Herbicidal rate of 20% or more and less than 40%) | M: velvetleaf, herbicidal effect grade (velvetleaf [7]; [19]): 0 (Herbicidal rate of 5% or less (almost no effect)) | K: Italian ryegrass, herbicidal effect grade (Italian ryegrass [8]; [19]): 0 (Herbicidal rate of 5% or less (almost no effect)) | O: lambsquarters, herbicidal effect grade (lambsquarters; [19]): 0 (Herbicidal rate of 5% or less (almost no effect)) | N: redroot pigweed, herbicidal effect grade (redroot pigweed [10]; [19]): 0 (Herbicidal rate of 5% or less (almost no effect)) | herbicidal effect on blackgrass (J) (blackgrass; [18]): 0 (Herbicidal rate of 5% or less (almost no effect)) | herbicidal effect rating, B: Japanese bulrush (Japanese bulrush; AAH 246 g/ha): 0 (Herbicidal rate of 5% or less (almost no effect)) | P: chickweed, herbicidal effect grade (chickweed [14]; [19]): 0 (Herbicidal rate of 5% or less (almost no effect)) | Herbicidal effect on E (rice flat sedge), foliage application (rice flat sedge; [19]): 4 (Herbicidal rate of 70% or more and less than 90%) | herbicidal effect on persian speedwell (R) (persian speedwell; [18]): 3 (Herbicidal rate of 40% or more and less than 70%) | F: southern crabgrass, herbicidal effect grade (southern crabgrass; [19]): 0 (Herbicidal rate of 5% or less (almost no effect)) | herbicidal effect on wild oat (I) (wild oat [11]; [18]): 1 (Herbicidal rate of 5% or more and less than 20%) | herbicidal effect on Italian ryegrass (K) (Italian ryegrass [12]; [18]): 0 (Herbicidal rate of 5% or less (almost no effect))
